≈ marks a conversion by molar mass, not a printed value.
Key:
[1] = target: Tyrosine-protein kinase Lck (Homo sapiens, UniProt P06239); experiment: Inhibition of human recombinant Lck in presence of 10 mM ATP
[2] = Aqueous solubility of the compound; format: physicochemical; conditions: buffer
Jurkat = experiment: Inhibition of anti-human CD3 epsilon-stimulated IL2 production in Jurkat E6-1 T cells; format: functional, cell-based
[3] = target: Tyrosine-protein kinase HCK (Homo sapiens, UniProt P08631); experiment: Inhibition of human recombinant Hck in presence of 10 mM ATP
Sequence of Tyrosine-protein kinase HCK (P08631 whole entry): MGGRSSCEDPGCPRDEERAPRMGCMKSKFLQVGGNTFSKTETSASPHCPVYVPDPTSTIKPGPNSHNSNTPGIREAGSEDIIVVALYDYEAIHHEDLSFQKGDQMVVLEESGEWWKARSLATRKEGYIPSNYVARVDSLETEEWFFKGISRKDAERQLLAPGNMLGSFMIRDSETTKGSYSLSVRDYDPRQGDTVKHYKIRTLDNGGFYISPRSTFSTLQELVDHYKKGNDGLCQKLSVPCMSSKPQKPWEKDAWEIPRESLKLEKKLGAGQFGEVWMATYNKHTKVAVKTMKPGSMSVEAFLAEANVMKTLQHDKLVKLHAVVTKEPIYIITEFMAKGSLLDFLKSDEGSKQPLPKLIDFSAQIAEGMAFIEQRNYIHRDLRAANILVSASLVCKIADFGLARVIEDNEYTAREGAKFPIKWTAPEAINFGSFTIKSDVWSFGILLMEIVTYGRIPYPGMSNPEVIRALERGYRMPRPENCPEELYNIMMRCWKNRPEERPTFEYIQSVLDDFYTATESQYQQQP

[4] = target: Proto-oncogene tyrosine-protein kinase Src (Homo sapiens, UniProt P12931); experiment: Inhibition of human recombinant Src in presence of 10 mM ATP
Sequence of Proto-oncogene tyrosine-protein kinase Src (P12931 2-536 limits assumed): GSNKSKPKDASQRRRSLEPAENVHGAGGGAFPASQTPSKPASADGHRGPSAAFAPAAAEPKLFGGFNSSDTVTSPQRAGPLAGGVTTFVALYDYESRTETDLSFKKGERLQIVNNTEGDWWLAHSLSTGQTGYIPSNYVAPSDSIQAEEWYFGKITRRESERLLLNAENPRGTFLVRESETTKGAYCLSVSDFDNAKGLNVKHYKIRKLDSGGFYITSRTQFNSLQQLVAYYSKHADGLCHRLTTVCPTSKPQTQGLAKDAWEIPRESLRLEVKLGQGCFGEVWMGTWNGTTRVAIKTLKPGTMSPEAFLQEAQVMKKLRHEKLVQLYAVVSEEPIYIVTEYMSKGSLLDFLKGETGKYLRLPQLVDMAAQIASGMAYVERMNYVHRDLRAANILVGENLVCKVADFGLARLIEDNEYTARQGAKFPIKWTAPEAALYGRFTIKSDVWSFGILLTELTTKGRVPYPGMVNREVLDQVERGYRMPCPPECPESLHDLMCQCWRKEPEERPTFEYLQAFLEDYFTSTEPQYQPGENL

[5] = Metabolic stability in Sprague-Dawley rat liver microsome after 1 hr; format: ADME; conditions: liver microsomes, read-out: Stability
[6] = Bioavailability in rat; format: ADME, organism-based; conditions: in vivo
[7] = Half life in rat; format: ADME, organism-based; conditions: in vivo

Sequence of Tyrosine-protein kinase Lck (P06239 whole entry): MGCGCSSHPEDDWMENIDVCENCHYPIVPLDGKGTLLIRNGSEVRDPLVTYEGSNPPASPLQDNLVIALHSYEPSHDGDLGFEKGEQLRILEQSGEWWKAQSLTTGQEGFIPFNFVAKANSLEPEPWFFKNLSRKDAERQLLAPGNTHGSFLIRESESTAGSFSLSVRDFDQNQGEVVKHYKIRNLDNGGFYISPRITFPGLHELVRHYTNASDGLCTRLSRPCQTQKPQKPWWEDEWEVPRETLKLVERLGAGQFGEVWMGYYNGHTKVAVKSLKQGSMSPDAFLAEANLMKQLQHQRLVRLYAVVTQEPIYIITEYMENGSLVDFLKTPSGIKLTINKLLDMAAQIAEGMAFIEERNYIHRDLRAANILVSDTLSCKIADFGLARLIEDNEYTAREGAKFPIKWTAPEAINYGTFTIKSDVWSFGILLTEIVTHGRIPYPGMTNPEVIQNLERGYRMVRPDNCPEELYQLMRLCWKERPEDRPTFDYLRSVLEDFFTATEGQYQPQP

| IC50 ([1]; read-out: IC50) [nM] | solubility [2] [µg/mL] | Structure (SMILES) | other results |
| --- | --- | --- | --- |
| 4800 | 7 (≈ 16 µM) | COc1ccc(Cl)c(C2=Cc3cnc(Nc4ccc(F)cc4)nc3N3CCC(=O)N23)c1 |  |
| 143 |  | COC(=O)c1ccc(Nc2ncc3c(n2)N2CCC(=O)N2C(c2c(Cl)cccc2Cl)=C3)cc1 |  |
| 10 | 1 (≈ 2.23 µM) | CN(C)c1ccc(Nc2ncc3c(n2)N2CCC(=O)N2C(c2cc(O)ccc2Cl)=C3)cc1 | IC50 (Jurkat): 0.546 nM; IC50 [3]: 546 nM; IC50 [4]: 273 nM |
| 3200 |  | CN1C(c2c(Cl)cccc2Cl)=Cc2cnc(Nc3ccc(F)cc3)nc2N1C |  |
| 7270 |  | COc1ccccc1Nc1ncc2c(n1)N1CCC(=O)N1C(c1c(Cl)cccc1Cl)=C2 |  |
| 182 | 2 (≈ 4.71 µM) | O=C1CCN2c3nc(Nc4ccccc4)ncc3C=C(c3c(Cl)cccc3Cl)N12 |  |
| 43 | 1 (≈ 2.02 µM) | CCN(CC)c1ccc(Nc2ncc3c(n2)N2CCC(=O)N2C(c2c(Cl)cccc2Cl)=C3)cc1 |  |
| 3 | 6 (≈ 11.8 µM) | O=C1CCN2c3nc(Nc4ccc(N5CCOCC5)cc4)ncc3C=C(c3c(Cl)cccc3Cl)N12 | IC50 (Jurkat): 2 nM; IC50 [3]: 160 nM; IC50 [4]: 104 nM |
| 2810 |  | CNc1ncc2c(n1)N1CCC(=O)N1C(c1c(Cl)cccc1Cl)=C2 |  |
| 285 |  | CCOc1ccc(Nc2ncc3c(n2)N2CCC(=O)N2C(c2c(Cl)cccc2Cl)=C3)cc1 |  |
| 124 | 2 (≈ 4.52 µM) | O=C1CCN2c3nc(Nc4ccc(F)cc4)ncc3C=C(c3c(Cl)cccc3Cl)N12 |  |
| 26 | 5 (≈ 10.7 µM) | CN(C)c1ccc(Nc2ncc3c(n2)N2CCC(=O)N2C(c2c(Cl)cccc2Cl)=C3)cc1 |  |
|  |  | CN1C(c2ccccc2Cl)=Cc2cnc(Nc3ccc(F)cc3)nc2N1C | IC50 [1]: Not Active |
| 2840 | 7 (≈ 15.1 µM) | COc1ccc(Cl)c(C2=Cc3cnc(Nc4ccc(N(C)C)cc4)nc3N3CCC(=O)N23)c1 |  |
| 179 |  | COc1cccc(Nc2ncc3c(n2)N2CCC(=O)N2C(c2c(Cl)cccc2Cl)=C3)c1 |  |
| 71 | 5 (≈ 11 µM) | COc1ccc(Nc2ncc3c(n2)N2CCC(=O)N2C(c2c(Cl)cccc2Cl)=C3)cc1 |  |
| 21 | 10 (≈ 20.2 µM) | CN(C)CCc1ccc(Nc2ncc3c(n2)N2CCC(=O)N2C(c2c(Cl)cccc2Cl)=C3)cc1 |  |

| Structure (SMILES) | IC50 ([1]; read-out: IC50) [nM] | solubility [2] [µg/mL] | other results |
| --- | --- | --- | --- |
| CN1CCN(c2ccc(Nc3ncc4c(n3)N3CCC(=O)N3C(c3cc(O)ccc3Cl)=C4)cc2)CC1 | 47 | 11 (≈ 21.8 µM) | IC50 (Jurkat): 2.1 nM; IC50 [3]: 456 nM; IC50 [4]: 764 nM |
| CCN(CC)CCOc1ccc(Nc2ncc3c(n2)N2CCC(=O)N2C(c2c(Cl)cccc2Cl)=C3)cc1 | 2 | 33.8 (≈ 62.7 µM) | IC50 (Jurkat): 3.21 nM; IC50 [3]: 48 nM; IC50 [4]: 3 nM; remaining at 1 h [5]: > 84%; bioavailability [6]: 14%; half-life [7]: 90 min |

Reference: ChEMBL document CHEMBL1146848, “The development of novel 1,2-dihydro-pyrimido[4,5-c]pyridazine based inhibitors of lymphocyte specific kinase (Lck)” (Bioorg Med Chem Lett, 2006)
